What follows are compounds tested against T1, human MAP4K4 kinase domain (Homo sapiens, UniProt O95819) (assay: MAP4K4 kinase activity, CisBio HTRF Transcreener ADP assay). Conditions: IC50 category; ATP at Km (10 μM), 0.5 nM kinase domain, 2 h; read-out: MAP4K4.
T1 construct: 0.5 nM human MAP4K4 kinase domain (Invitrogen); purchased Invitrogen
Format: biochemical
Source text: Compounds of the present invention were screened for their inhibitory activity against MAP4K4, versus selected off-target hits found with early members of this chemical series. MAP4K4 kinase activity was monitored using the CisBio HTRF Transcreener ADP assay, a competitive immunoassay with a reproducible Z′>0.6. In the detection step, endogenous ADP and d2-labeled ADP compete for binding an anti-ADP monoclonal antibody labelled with Eu^3+ cryptate. A ratiometric fluorescent read-out is used at 665 and 620 nm. Reactions were performed in the presence of 1% DMSO with ATP added at Km (10 μM), 0.5 nM human MAP4K4 kinase domain (Invitrogen), 1 μM biotin-myelin basic protein as substrate (Invitrogen), and extension of reaction time to 2 h. Assays were run in Greiner low volume plates with a final reaction volume of 10 μl. The MAP4K4 inhibition data are provided in Table 41 below for selected compounds of the present invention. The data has been categorised based on the IC50 value of the compound as “A”, “B” or “C”. IC50: A≤100 nM; 100 nM<B≤1 μM; 1 μM<C; nd=not determined.

T1 sequence (O95819 25-289 limits assumed): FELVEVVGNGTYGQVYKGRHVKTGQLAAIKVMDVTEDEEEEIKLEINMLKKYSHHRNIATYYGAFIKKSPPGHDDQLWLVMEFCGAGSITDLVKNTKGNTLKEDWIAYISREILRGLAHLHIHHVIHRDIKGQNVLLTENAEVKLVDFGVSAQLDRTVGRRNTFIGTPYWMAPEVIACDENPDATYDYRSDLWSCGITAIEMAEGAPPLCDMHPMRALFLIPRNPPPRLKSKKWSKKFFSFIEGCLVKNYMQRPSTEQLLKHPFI

`O=c1[nH]cnc2c(-c3cnn(CCO)c3)cn(-c3ccccc3)c12` [Ex-123] and `Cn1cc(-c2cn(-c3ccccc3)c3c(=O)[nH]cnc23)cn1` [Ex-120] fall in the same range of IC50: 100 to 1000 nM for the first, 100 to 1000 nM for the second.

`CC(C)(CO)COc1ccc(-c2cn(-c3cccnc3)c3nc[nH]c(=O)c23)cc1` [Ex-92] and `CC(C)(O)C(O)COc1ccc(-c2cn(-c3cccnc3)c3nc[nH]c(=O)c23)cc1` (stereo not shown) [Ex-81] cannot be ordered by IC50: ≤ 100 nM for the first, ≤ 100 nM for the second.

`CC(C)(O)CCNc1ccc(-c2cn(-c3ccccc3)c3nc[nH]c(=O)c23)cn1` [Ex-94, 5-[6-[(3-hydroxy-3-methyl-butyl)amino]-3-pyridyl]-7-phenyl-3H-pyrrolo[2,3-d]pyrimidin-4-one] and `CC(C)(O)CCOc1ccc(-c2cn(-c3ccccc3)c3nc[nH]c(=O)c23)cn1` [Ex-75] cannot be ordered by IC50: ≤ 100 nM for the first, ≤ 100 nM for the second.

First: O=c1[nH]cnc2c(-c3ccncc3F)cn(-c3ccccc3)c12 [Ex-121]
Second: O=c1[nH]cnc2c1c(-c1ccncc1F)cn2-c1ccccc1 [Ex-61]
The IC50 of the first is higher: > 1000 nM for the first, 100 to 1000 nM for the second. The second is the more potent here.

`O=c1[nH]cnc2c1c(-c1cnn(CCCO)c1)cn2-c1ccccc1` [Ex-113, 5-[1-(3-Hydroxy-propyl)-1H-pyrazol-4-yl]-7-phenyl-3,7-dihydro-pyrrolo[2,3-d]pyrimidin-4-one] and `COCCCn1cc(-c2cn(-c3ccccc3)c3nc[nH]c(=O)c23)cn1` [Ex-64] cannot be ordered by IC50: ≤ 100 nM for the first, ≤ 100 nM for the second.

`COC(COc1ccc(-c2cn(-c3cccnc3)c3nc[nH]c(=O)c23)cc1)CN1CCOCC1` (stereo not shown) [Ex-34] and `O=c1[nH]cnc2c1c(-c1ccc(OCCC3(O)CC3)cc1)cn2-c1cccnc1` [Ex-70] cannot be ordered by IC50: ≤ 100 nM for the first, ≤ 100 nM for the second.

`COCCNc1ccc(-c2cn(-c3ccccc3)c3nc[nH]c(=O)c23)cn1` [Ex-38] and `COCCNc1ccc(-c2cn(-c3cccc(F)c3)c3nc[nH]c(=O)c23)cn1` [Ex-30] cannot be ordered by IC50: ≤ 100 nM for the first, ≤ 100 nM for the second.

`COCCn1cc(-c2cn(-c3ccccc3)c3nc[nH]c(=O)c23)cn1` [Ex-62] and `COC(=O)Cn1cc(-c2cn(-c3ccccc3)c3nc[nH]c(=O)c23)cn1` [Ex-21] cannot be ordered by IC50: ≤ 100 nM for the first, ≤ 100 nM for the second.

`O=c1[nH]cnc2c(-c3ccnnc3)cn(-c3ccccc3)c12` [Ex-116] and `O=c1[nH]cnc2c(-c3ccncc3)cn(-c3ccccc3)c12` [Ex-119, 5-Phenyl-7-pyridin-4-yl-3,5-dihydro-pyrrolo[3,2-d]pyrimidin-4-one] fall in the same range of IC50: 100 to 1000 nM for the first, 100 to 1000 nM for the second.

`COCCOc1ccc(-c2cn(-c3cccnc3)c3cc[nH]c(=O)c23)cc1` [Ex-140, 3-[4-(2-Methoxy-ethoxy)-phenyl]-1-pyridin-3-yl-1,5-dihydro-pyrrolo[3,2-c]pyridin-4-one] and `O=c1[nH]cnc2c1c(-c1ccc(OC(F)(F)CO)cc1)cn2-c1cccnc1` [Ex-77] cannot be ordered by IC50: ≤ 100 nM for the first, ≤ 100 nM for the second.

`O=c1[nH]cnc2c1c(-c1cnn(CCO)c1)cn2-c1cccc(F)c1` [Ex-59] and `O=c1[nH]cnc2c1c(-c1cnn(CCO)c1)cn2-c1ccc(F)cc1` [Ex-55, 7-(4-fluorophenyl)-5-(1-(2-hydroxyethyl)-1H-pyrazol-4-yl)-3,7-dihydro-4H-pyrrolo[2,3-d]pyrimidin-4-one] cannot be ordered by IC50: ≤ 100 nM for the first, 100 to 1000 nM for the second.

First: O=c1[nH]cnc2c(-c3ccc4[nH]cnc4c3)cn(-c3ccccc3)c12 [Ex-118]
Second: CNc1ccc(-c2cn(-c3ccccc3)c3c(=O)[nH]cnc23)cn1 [Ex-134]
The IC50 of the first is lower: 100 to 1000 nM for the first, > 1000 nM for the second.

`CC(=O)Nc1ccc(-c2cn(-c3ccccc3)c3nc[nH]c(=O)c23)cn1` [Ex-6] and `CN(CCO)c1ccc(-c2cn(-c3ccccc3)c3nc[nH]c(=O)c23)cn1` [Ex-52] cannot be ordered by IC50: ≤ 100 nM for the first, ≤ 100 nM for the second.

`COCCNc1ncc(-c2cn(-c3cccc(F)c3)c3nc[nH]c(=O)c23)cn1` [Ex-31] and `O=c1[nH]cnc2c1c(-c1cnc(NCCO)nc1)cn2-c1ccccc1` [Ex-49] cannot be ordered by IC50: ≤ 100 nM for the first, ≤ 100 nM for the second.

`O=c1[nH]cnc2c1c(-c1ccc(O[C@@H]3CO[C@@H]4[C@H]3OC[C@@H]4O)cc1)cn2-c1cccnc1` [Ex-80] and `O=c1[nH]cnc2c1c(-c1cccnc1)cn2-c1ccccc1` [Ex-5] cannot be ordered by IC50: ≤ 100 nM for the first, ≤ 100 nM for the second.

`COCCn1cc(-c2cn(-c3cccnc3)c3nc[nH]c(=O)c23)cn1` [Ex-19] and `COCCn1cc(-c2cn(-c3ccncc3)c3nc[nH]c(=O)c23)cn1` [Ex-63] fall in the same range of IC50: 100 to 1000 nM for the first, 100 to 1000 nM for the second.

`Nc1ncccc1-c1cn(-c2ccccc2)c2c(=O)[nH]cnc12` [Ex-126] and `Cn1cnc2cccc(-c3cn(-c4ccccc4)c4c(=O)[nH]cnc34)c21` [Ex-129] cannot be ordered by IC50: > 1000 nM for the first, > 1000 nM for the second.

`COCCOc1ccc(-c2cn(-c3ccncc3)c3nc[nH]c(=O)c23)cn1` [Ex-13] and `COCCNc1ccc(-c2cn(-c3cccnc3)c3nc[nH]c(=O)c23)cn1` [Ex-39] cannot be ordered by IC50: ≤ 100 nM for the first, 100 to 1000 nM for the second.

`Cn1ccc(-c2cn(-c3ccccc3)c3c(=O)[nH]cnc23)n1` [Ex-122] and `Cn1ccc(-c2cn(-c3ccccc3)c3nc[nH]c(=O)c23)n1` [Ex-25] cannot be ordered by IC50: > 1000 nM for the first, > 1000 nM for the second.

`CN(CCC(C)(C)O)c1ccc(-c2cn(-c3ccccc3)c3nc[nH]c(=O)c23)cn1` [Ex-95] and `CC(C)(O)COc1ccc(-c2cn(-c3ccccc3)c3nc[nH]c(=O)c23)cn1` [Ex-46] cannot be ordered by IC50: ≤ 100 nM for the first, ≤ 100 nM for the second.

`CC(C)(C)OC(=O)N1CC(n2cc(-c3cn(-c4ccccc4)c4nc[nH]c(=O)c34)cn2)C1` [Ex-65, 3-[4-(4-oxo-7-phenyl-4,7-dihydro-3H-pyrrolo[2,3-d]pyrimidin-5-yl)-pyrazol-1-yl]-azetidine-1-carboxylic acid tert-butyl ester] and `O=c1[nH]cnc2c1c(-c1cnn(C3CNC3)c1)cn2-c1ccccc1` [Ex-108, 5-(1-Azetidin-3-yl-1H-pyrazol-4-yl)-7-phenyl-3,7-dihydro-pyrrolo[2,3-d]pyrimidin-4-one] cannot be ordered by IC50: ≤ 100 nM for the first, 100 to 1000 nM for the second.

`CC(=O)N1CC(n2cc(-c3cn(-c4cccc(F)c4)c4nc[nH]c(=O)c34)cn2)C1` [Ex-11] and `O=C(C1CC1)N1CC(n2cc(-c3cn(-c4cccnc4)c4nc[nH]c(=O)c34)cn2)C1` [Ex-36] cannot be ordered by IC50: ≤ 100 nM for the first, 100 to 1000 nM for the second.

`Nc1cc(-c2cn(-c3ccccc3)c3nc[nH]c(=O)c23)ccn1` [Ex-8] and `COc1cc(-c2cn(-c3ccccc3)c3nc[nH]c(=O)c23)ccn1` [Ex-17] cannot be ordered by IC50: ≤ 100 nM for the first, ≤ 100 nM for the second.

First: O=c1[nH]cnc2c1c(-c1ccccc1)cn2-c1ccncc1 [Ex-2]
Second: O=c1[nH]cnc2c1c(-c1ccccn1)cn2-c1ccccc1 [Ex-106]
The IC50 of the first is lower: 100 to 1000 nM for the first, > 1000 nM for the second. The first is the more potent here.

`CC(C)(O)CCOc1ccc(-c2cn(-c3cccnc3)c3nc[nH]c(=O)c23)cc1C#N` [Ex-87] and `CC(C)(O)CCOc1ccc(-c2cn(-c3cccnc3)c3nc[nH]c(=O)c23)cc1F` [Ex-73] cannot be ordered by IC50: ≤ 100 nM for the first, ≤ 100 nM for the second.

`CN(CCO)c1ncc(-c2cn(-c3ccccc3)c3nc[nH]c(=O)c23)cc1C#N` [Ex-53] and `COc1ccc(-c2cn(-c3ccccc3)c3nc[nH]c(=O)c23)nc1` [Ex-105] cannot be ordered by IC50: ≤ 100 nM for the first, 100 to 1000 nM for the second.

Compared with `O=c1[nH]cnc2c1c(-c1cnc(N3CC(O)C3)nc1)cn2-c1ccccc1` [Ex-50], `Cc1noc(C)c1-c1cn(-c2ccccc2)c2nc[nH]c(=O)c12` [Ex-7] is higher in IC50: 100 to 1000 nM for the first, > 1000 nM for the second. The first is the more potent here.

`CNCCC(=O)Nc1ccc(-c2cn(-c3ccncc3)c3nc[nH]c(=O)c23)cc1` [Ex-10] and `Cc1cc(-n2cc(-c3ccc(OCCC(C)(C)O)cc3)c3c(=O)[nH]cnc32)ccn1` [Ex-82] fall in the same range of IC50: 100 to 1000 nM for the first, 100 to 1000 nM for the second.

`COc1ccc(-n2cc(-c3ccc(OCCC(C)(C)O)cc3)c3c(=O)[nH]cnc32)cn1` [Ex-86] and `COc1ccc(-c2cn(-c3ccccc3)c3c(=O)[nH]cnc23)cn1` [Ex-132] cannot be ordered by IC50: ≤ 100 nM for the first, 100 to 1000 nM for the second.
